Reference: ChEMBL document CHEMBL5260817, “Polyamine-based analogs and conjugates as antikinetoplastid agents” (Eur J Med Chem, 2017)
Several values for one entry are separate records, joined by “and”; a condition that tells them apart may be missing. Equal entries are not always repeated.

Columns and labels:
Leishmania donovani [1] = test: Antiprotozoal activity against Leishmania donovani promastigotes; assay type: functional, organism-based
Leishmania amazonensis [2] = test: Antiprotozoal activity against Leishmania amazonensis measured after 3 days by MTT assay; assay type: functional, organism-based; conditions: 72 h
Leishmania chagasi = test: Antiprotozoal activity against Leishmania chagasi measured after 3 days by MTT assay; assay type: functional, organism-based; conditions: 72 h
Trypanosoma brucei [3] = test: Trypanocidal activity against Trypanosoma brucei K 269 strain; assay type: functional, organism-based
Trypanosoma brucei [4] = test: Trypanocidal activity against Trypanosoma brucei K 243-As-10-3 strain; assay type: functional, organism-based
Trypanosoma brucei [5] = test: Trypanocidal activity against Trypanosoma brucei K 243 strain; assay type: functional, organism-based
Trypanothione reductase [6] = molecular target: Trypanothione reductase (Trypanosoma brucei brucei, UniProt P39051); test: Inhibition of Trypanosoma brucei TryR assessed as inhibition constant
Trypanosoma brucei [7] = test: Trypanocidal activity against Trypanosoma brucei Lab 110 strain; assay type: functional, organism-based
[8] = Inhibition of Trypanosoma brucei MetRS
Trypanosoma brucei [9] = test: Antiprotozoal activity against Trypanosoma brucei; assay type: functional, organism-based
Leishmania amazonensis [10] = test: Antiprotozoal activity against Leishmania amazonensis promastigotes measured after 48 hrs by MTT assay; assay type: functional, organism-based
Leishmania donovani [11] = test: Antiprotozoal activity against Leishmania donovani amastigotes assessed as growth inhibition measured after 7 days relative to control; assay type: functional; conditions: time 7 day
Trypanothione reductase [12] = molecular target: T1, Trypanothione reductase (Trypanosoma cruzi, UniProt P28593); test: Inhibition of Trypanosoma cruzi TryR
Trypanosoma cruzi [13] = test: Antiprotozoal activity against Trypanosoma cruzi; assay type: functional, organism-based
Bacteria = test: Inhibition of TryR (unknown origin) at 10 uM relative to control
Trypanothione reductase [14] = molecular target: T1, Trypanothione reductase; test: Inhibition of Trypanosoma cruzi TryR assessed as inhibition constant
[15] = Inhibition of TryR (unknown origin) assessed as inhibition constant; parameters: species or system Bacteria
Trypanosoma cruzi [16] = test: Antiprotozoal activity against Trypanosoma cruzi MG strain epimastigotes; assay type: functional, organism-based
Trypanosoma cruzi [17] = test: Antiprotozoal activity against Trypanosoma cruzi JEM strain epimastigotes; assay type: functional, organism-based
[18] = tested on: Trypanosoma brucei rhodesiense; test: Antiprotozoal activity against Trypanosoma brucei rhodesiense; assay type: functional, organism-based
Leishmania donovani [19] = test: Antiprotozoal activity against Leishmania donovani MHOM/SD/00/1S-2D strain promastigotes assessed as parasitic death at 10 uM relative to control; assay type: functional
Leishmania donovani [20] = test: Antiprotozoal activity against Leishmania donovani MHOM/SD/00/1S-2D strain promastigotes assessed as parasitic death; assay type: functional, organism-based
[21] = molecular target: Glutathione reductase, mitochondrial (Homo sapiens, UniProt P00390); test: Inhibition of human glutathione reductase
Trypanosoma cruzi [22] = test: Antiprotozoal activity against Trypanosoma cruzi epimastigotes; assay type: functional, organism-based
Leishmania amazonensis [23] = test: Antiprotozoal activity against Leishmania amazonensis PH8 strain […] assessed as […] at 10 ug/ml relative to control; assay type: functional; conditions: dose 10 µg/ml
Leishmania braziliensis [24] = test: Antiprotozoal activity against Leishmania braziliensis 2903 strain […] assessed as […] at 10 ug/ml relative to control; assay type: functional; conditions: dose 10 µg/ml
Leishmania donovani [25] = test: Antiprotozoal activity against Leishmania donovani PP75 strain […] assessed as […] at 10 ug/ml relative to control; assay type: functional; conditions: dose 10 µg/ml
Leishmania braziliensis [26] = test: Antiprotozoal activity against Leishmania braziliensis MHOM/PE/84/LC26 amastigotes infected in mouse J774.2 cells measured after 72 hrs; assay type: functional, organism-based; conditions: J774.2, 72 h
Trypanosoma = test: Inhibition of Trypanosomal TryS at 10 uM relative to control
[27] = tested on: Trypanosoma brucei brucei; test: Antiprotozoal activity against Trypanosoma brucei brucei; assay type: functional, organism-based

T1 sequence (P28593 whole entry): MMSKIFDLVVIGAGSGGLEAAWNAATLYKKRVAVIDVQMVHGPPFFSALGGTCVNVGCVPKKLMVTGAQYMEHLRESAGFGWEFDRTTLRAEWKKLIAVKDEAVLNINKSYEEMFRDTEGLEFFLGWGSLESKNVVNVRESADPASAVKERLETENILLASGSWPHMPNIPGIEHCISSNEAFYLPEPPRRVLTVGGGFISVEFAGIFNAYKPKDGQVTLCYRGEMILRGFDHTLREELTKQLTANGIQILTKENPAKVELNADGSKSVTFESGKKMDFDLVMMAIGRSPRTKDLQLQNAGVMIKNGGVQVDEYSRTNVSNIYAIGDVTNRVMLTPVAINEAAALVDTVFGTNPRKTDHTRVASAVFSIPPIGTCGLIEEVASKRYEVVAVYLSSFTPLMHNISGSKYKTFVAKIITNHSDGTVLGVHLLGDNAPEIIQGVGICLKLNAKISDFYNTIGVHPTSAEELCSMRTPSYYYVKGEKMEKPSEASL
Sequence of Trypanothione reductase (Trypanosoma brucei brucei, UniProt P39051) (P39051 whole entry): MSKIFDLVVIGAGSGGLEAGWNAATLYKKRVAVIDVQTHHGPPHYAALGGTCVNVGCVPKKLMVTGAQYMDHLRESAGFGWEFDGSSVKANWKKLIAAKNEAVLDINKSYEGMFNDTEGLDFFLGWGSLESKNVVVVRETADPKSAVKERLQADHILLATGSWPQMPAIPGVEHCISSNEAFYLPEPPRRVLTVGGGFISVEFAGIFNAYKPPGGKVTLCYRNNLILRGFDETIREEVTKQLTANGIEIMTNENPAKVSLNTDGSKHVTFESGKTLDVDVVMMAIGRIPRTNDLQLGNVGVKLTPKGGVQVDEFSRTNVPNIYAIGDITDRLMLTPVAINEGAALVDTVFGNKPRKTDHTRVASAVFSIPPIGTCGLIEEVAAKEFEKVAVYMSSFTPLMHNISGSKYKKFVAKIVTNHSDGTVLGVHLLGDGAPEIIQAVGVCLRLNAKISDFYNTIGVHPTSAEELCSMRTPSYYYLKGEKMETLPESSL
Sequence of Glutathione reductase, mitochondrial (P00390 whole entry): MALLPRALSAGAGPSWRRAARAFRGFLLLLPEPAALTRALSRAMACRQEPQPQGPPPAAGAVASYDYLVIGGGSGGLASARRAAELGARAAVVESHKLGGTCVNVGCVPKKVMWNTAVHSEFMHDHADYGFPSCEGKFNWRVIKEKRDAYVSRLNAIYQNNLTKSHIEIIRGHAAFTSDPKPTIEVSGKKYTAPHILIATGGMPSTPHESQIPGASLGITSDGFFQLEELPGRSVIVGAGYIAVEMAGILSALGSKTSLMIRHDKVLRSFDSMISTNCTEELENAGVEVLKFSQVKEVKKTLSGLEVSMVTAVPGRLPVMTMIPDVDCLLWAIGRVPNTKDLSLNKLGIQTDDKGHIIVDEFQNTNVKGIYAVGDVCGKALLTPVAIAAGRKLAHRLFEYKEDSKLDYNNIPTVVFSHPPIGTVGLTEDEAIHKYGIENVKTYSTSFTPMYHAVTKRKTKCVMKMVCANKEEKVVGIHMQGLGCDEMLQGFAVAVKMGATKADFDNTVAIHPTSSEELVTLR

## NCCCN(Cc1ccc(OCc2ccc(Br)cc2)cc1)Cc1ccc(OCc2ccc(Br)cc2)cc1
Leishmania donovani [1]
  IC50: < 1 µM

## CCCCCCCCCCCCNCCCCN
Leishmania amazonensis [2]
  IC50: 5.13 µM
Leishmania chagasi
  IC50: 0.53 µM

## c1ccc(CCCNCCCNCCCCNCCCNCCCc2ccccc2)cc1
Trypanosoma brucei [3]
  IC50: 1 µM
Trypanosoma brucei [4]
  IC50: 1 µM
Trypanosoma brucei [5]
  IC50: 1 µM
Trypanothione reductase [6]
  Ki: 12 µM
Trypanosoma brucei [7]
  IC50: 1 µM

## CCCNCCCCCCCCCNC(=O)[C@H](O)[C@H](O)[C@H](O)CO
Leishmania chagasi
  IC50: 2.5 µM

## Clc1cc(Cl)c2c(c1)[C@H](NCCCNc1nc3ncccc3[nH]1)CCN2
[8]
  IC50: 0.002 µM
Trypanosoma brucei [9]
  IC50: 0.0004 µM

## CC(C)=CCC/C(C)=C/CC/C(C)=C/CN1CCNCC1
Leishmania amazonensis [10]
  IC50: 13 µM

## CN1CCN(CCCNCCC#N)CC1
Leishmania donovani [11]
  inhibition (INH): 80%

## CCCCCCCCCCCCCC(=O)NCCCC(=O)N(CC(=O)Nc1cccc(Sc2ccc(Br)cc2NC(=O)CCN2CCN(C)CC2)c1)C(=O)Nc1ccccc1Sc1ccc(Br)cc1NC(=O)CCN1CCN(C)CC1
Trypanothione reductase [12]
  IC50: 0.2 µM

## CCN(CCCCN1CN(C(CC(C)C)C(=O)O)CSC1=S)CCCN1CN(C(CC(C)C)C(=O)O)CSC1=S (stereo unspecified)
Trypanosoma cruzi [13]
  IC50: 3.64 µM

## O=C(Cc1c[nH]c2ccccc12)NCCCCNCCCNC(=O)Cc1c[nH]c2ccccc12
Bacteria
  inhibition: 95%

## c1ccc(CCCN(CCCCN(CCCc2ccccc2)CCCN(CCCc2ccccc2)CCCc2ccccc2)CCCN(CCCc2ccccc2)CCCc2ccccc2)cc1
Trypanosoma brucei [3]
  IC50: 20 µM
Trypanosoma brucei [4]
  IC50: 20 µM
Trypanosoma brucei [5]
  IC50: 20 µM
Trypanosoma brucei [7]
  IC50: 20 µM

## NCCCCN(Cc1ccccc1)Cc1ccc(OCc2ccccc2)cc1
Leishmania donovani [1]
  IC50: < 1 µM

## NCCCCN(CCCN)Cc1ccccc1
Trypanothione reductase [14]
  Ki: > 100 µM

## CCCCN(CCCC)CCCNC(=O)CCCC1=C(CCCC(=O)NCCCN(CCCC)CCCC)C(=O)c2c(O)cccc2C1=O
Trypanothione reductase [12]
  IC50: 0.6 µM

## O=C(Cc1c[nH]c2cc(Br)ccc12)NCCCNCCCCNCCCNC(=O)Cc1c[nH]c2cc(Br)ccc12
Bacteria
  inhibition: 98%
[15]
  Ki: 0.076 µM and 0.08 µM

## CCCCCCCCCCCCCCC(N)CN (stereo unspecified)
Trypanosoma cruzi [16]
  IC50: > 19 µM
Trypanosoma cruzi [17]
  IC50: > 19 µM

## CN1CCN(CCCNC(=O)/C=C/c2ccc3occ(/C=C/C(=O)NCCCN4CCN(C)CC4)c3c2)CC1
[15]
  Ki: 3.5 µM

## CN1CCN(CCC(=N)Nc2cc(Cl)ccc2Sc2ccccc2)CC1
[18]
  IC50: 1.56 µM

## COc1ccc2nc3cc(Cl)ccc3c(NCCCCNCCCNc3c4ccc(Cl)cc4nc4ccc(OC)cc34)c2c1
Leishmania donovani [19]
  inhibition at 10 µM: 90%
Leishmania donovani [20]
  IC50: 1 µM

## CC(C)=CCC/C(C)=C/CC/C(C)=C/CNCCN
Leishmania amazonensis [10]
  IC50: 16.8 µM

## CCCCN(CCCC)CCCNC(=O)CCCCC1=C(C)C(=O)c2cccc(O)c2C1=O
[21]
  IC50: > 40 µM

## CCCCCCCCCCCC(=O)NCCCCN
Leishmania amazonensis [2]
  IC50: 10 µM
Leishmania chagasi
  IC50: 10 µM

## CCCCCCCCCCNCCCCCCN
Trypanosoma cruzi [22]
  IC50: 14.3 µM

## CCCCCCCCCCCCCCC(CN(CC)CC)NC(=O)OC(C)(C)C (stereo unspecified)
Leishmania amazonensis [23]
  Activity: 80%
Leishmania braziliensis [24]
  Activity: 80%
Leishmania donovani [25]
  Activity: 80%

## Clc1cc(Cl)cc(CNCCCNc2nc3ncccc3[nH]2)c1
[8]
  IC50: 0.001 µM
Trypanosoma brucei [9]
  IC50: 0.004 µM

## CCCCCCCCCCCCNCCN
Leishmania amazonensis [2]
  IC50: 0.94 µM
Leishmania chagasi
  IC50: 0.2 µM

## CC(=O)c1ccc(Sc2ccccc2NCCCN(CCCN)CCCCN(CCCN)CCCNc2cc(Cl)ccc2Sc2ccc(C(C)=O)cc2)cc1
[15]
  Ki: 0.4 µM

## CN1CCN(CCC(=O)Nc2cc(Cl)ccc2Sc2cccc(NC(=O)CCCC(=O)Nc3cccc(Sc4ccc(Cl)cc4NC(=O)CCN4CCN(C)CC4)c3)c2)CC1
Leishmania braziliensis [26]
  IC50: 0.93 µM
Trypanothione reductase [12]
  IC50: 0.93 µM

## NCCNC(=O)CN1C(=O)Cc2c([nH]c3ccc(Br)cc23)-c2ccccc21
Trypanosoma
  inhibition: 80%

## COc1ccc2nc3cc(Cl)ccc3c(NCCCCN(CCCNc3c4ccc(Cl)cc4nc4ccc(OC)cc34)C(=O)[C@H](C)N)c2c1
Leishmania donovani [19]
  inhibition at 10 µM: 90%
Leishmania donovani [20]
  IC50: 1 µM

## N=C(NCCCNCCCCCCCNCCCNC(=N)NC1CCCCCC1)NC1CCCCCC1
[27]
  IC50: > 15 µM

## CC(C)=CCC/C(C)=C/CC/C(C)=C/CNCCCCN
Leishmania amazonensis [10]
  IC50: 15 µM
